Tests used:
PI3 Kinase α = PI3 Kinase α (Homo sapiens, UniProt P42336); assay: Fluorescence polarization assay for PI3K (PI3 Kinase α); assay type: biochemical; conditions: diC8-PI(4,5)P2 substrate, 25 μM ATP, one hour at 25° C.
Description: Nunc 384 well black polypropylene fluorescent plates were used for PI3K assays. Reactions were quenched by the addition of EDTA to a final concentration of 10 μM. Final reaction volumes were 10 ml. […] Reactions were allowed to proceed for one hour at 25° C. After I hour, GST-tagged GRP1 (general receptor for phosphoinositides) PH domain fusion protein was added to a final concentration of 100 nM, and BODIPY-TMRI(1,3,4,5)P4 (Echelon) was also added to a final concentration of 5 nM. Final sample volumes were 25 μl with a final DMSO concentration of 0.8%. Assay Plates were read on PerkinElmer Envision plate readers with appropriate filters for Tamra [BODIPY-TMRI(1,3,4,5)P4]. Data obtained were used to calculate enzymatic activity and enzyme inhibition by inhibitor compounds.

PI3 Kinase γ = PI3 Kinase γ (Homo sapiens, UniProt P48736); assay: Fluorescence polarization assay for PI3K (PI3 Kinase γ); assay type: biochemical; conditions: diC8-PI(4,5)P2 substrate, 25 μM ATP, one hour at 25° C.
Chain of PI3 Kinase γ (P48736 whole entry): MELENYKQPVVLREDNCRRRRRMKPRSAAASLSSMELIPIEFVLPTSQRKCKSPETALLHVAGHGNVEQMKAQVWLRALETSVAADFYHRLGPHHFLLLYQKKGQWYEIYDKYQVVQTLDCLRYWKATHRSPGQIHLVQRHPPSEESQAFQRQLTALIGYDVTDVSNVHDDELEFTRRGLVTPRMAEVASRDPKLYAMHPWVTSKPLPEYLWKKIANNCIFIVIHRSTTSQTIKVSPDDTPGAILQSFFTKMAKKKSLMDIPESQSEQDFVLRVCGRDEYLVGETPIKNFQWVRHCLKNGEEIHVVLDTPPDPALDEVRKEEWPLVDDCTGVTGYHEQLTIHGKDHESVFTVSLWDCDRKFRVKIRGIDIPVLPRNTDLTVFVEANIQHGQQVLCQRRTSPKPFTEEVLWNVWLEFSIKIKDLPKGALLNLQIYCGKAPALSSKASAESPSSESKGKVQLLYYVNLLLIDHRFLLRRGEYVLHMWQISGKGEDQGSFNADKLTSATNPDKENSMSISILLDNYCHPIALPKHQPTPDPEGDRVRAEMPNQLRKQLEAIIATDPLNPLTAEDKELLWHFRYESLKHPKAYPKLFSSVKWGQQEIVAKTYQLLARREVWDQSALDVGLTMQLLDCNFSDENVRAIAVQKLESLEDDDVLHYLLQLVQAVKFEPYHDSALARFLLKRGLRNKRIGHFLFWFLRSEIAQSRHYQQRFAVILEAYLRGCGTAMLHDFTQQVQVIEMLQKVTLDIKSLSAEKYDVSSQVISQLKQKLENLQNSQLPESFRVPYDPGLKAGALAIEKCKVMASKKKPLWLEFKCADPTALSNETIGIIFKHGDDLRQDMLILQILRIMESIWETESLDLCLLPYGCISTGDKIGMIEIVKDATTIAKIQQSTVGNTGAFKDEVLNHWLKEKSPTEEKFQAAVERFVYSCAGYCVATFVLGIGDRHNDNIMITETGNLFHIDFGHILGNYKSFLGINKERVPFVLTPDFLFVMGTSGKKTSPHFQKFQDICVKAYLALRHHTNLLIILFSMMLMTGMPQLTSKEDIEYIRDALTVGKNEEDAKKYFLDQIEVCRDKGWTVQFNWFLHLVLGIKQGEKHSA

Chain of PI3 Kinase α (P42336 whole entry): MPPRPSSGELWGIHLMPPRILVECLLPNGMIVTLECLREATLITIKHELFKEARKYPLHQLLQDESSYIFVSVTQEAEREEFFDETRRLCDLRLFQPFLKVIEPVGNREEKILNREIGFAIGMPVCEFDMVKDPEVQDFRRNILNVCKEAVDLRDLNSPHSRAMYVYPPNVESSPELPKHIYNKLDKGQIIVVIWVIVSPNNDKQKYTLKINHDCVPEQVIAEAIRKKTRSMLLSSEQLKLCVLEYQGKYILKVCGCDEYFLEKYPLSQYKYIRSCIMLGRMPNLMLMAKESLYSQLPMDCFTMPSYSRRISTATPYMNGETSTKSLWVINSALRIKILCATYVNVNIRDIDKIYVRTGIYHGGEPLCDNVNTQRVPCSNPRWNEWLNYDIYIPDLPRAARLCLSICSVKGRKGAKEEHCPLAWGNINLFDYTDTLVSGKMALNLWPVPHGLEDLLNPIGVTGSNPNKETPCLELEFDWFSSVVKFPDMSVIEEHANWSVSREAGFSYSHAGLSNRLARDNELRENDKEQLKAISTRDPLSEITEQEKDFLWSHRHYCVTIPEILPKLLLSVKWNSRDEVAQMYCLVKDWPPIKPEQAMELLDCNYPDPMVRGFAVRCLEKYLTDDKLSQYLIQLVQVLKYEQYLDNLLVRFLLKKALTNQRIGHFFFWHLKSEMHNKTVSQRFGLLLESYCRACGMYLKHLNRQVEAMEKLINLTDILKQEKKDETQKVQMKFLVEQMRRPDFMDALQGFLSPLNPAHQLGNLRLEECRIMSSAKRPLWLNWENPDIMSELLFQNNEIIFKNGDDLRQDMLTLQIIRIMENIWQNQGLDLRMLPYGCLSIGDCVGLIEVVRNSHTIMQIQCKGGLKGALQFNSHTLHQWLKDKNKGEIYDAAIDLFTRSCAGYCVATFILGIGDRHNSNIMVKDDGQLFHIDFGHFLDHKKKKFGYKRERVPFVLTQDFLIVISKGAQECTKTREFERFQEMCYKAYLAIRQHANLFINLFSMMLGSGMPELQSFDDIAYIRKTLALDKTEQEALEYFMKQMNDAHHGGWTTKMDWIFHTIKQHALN
Chain of PI3 Kinase α (P27986 whole entry partner): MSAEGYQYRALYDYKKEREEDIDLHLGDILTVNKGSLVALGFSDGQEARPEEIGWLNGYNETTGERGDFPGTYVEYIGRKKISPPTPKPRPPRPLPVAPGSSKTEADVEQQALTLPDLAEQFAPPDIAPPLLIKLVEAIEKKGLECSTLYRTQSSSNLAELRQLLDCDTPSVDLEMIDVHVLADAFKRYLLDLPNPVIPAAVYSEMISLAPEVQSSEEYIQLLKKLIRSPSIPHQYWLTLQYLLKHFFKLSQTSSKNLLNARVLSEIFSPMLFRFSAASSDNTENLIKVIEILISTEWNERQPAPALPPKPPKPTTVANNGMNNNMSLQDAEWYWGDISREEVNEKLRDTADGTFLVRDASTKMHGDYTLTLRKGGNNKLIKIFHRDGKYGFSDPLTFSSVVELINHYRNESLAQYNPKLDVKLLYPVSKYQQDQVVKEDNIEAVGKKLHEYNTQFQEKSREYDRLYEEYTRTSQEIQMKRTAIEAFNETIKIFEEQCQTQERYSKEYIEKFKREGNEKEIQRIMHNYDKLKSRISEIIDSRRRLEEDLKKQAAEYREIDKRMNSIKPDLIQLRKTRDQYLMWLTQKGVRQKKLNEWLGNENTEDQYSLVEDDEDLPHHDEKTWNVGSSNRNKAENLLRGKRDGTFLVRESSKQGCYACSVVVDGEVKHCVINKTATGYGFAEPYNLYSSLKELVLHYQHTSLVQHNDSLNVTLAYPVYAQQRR

IC50 (PI3 Kinase α) [nM]	IC50 (PI3 Kinase γ) [nM]	SMILES
130	1960	Oc1cccc(-c2nc(N3CCOCC3)c3nnn(C4CNC4)c3n2)c1 [Example 125, 3-(3-azetidin-3-yl-7-morpholin-4-yl-3H-[1,2,3]triazolo[4,5-d]pyrimidin-5-yl)phenol]
341	7440	CCn1nnc2c(N3CCOCC3)nc(-c3ccc(NC(=O)OCCc4ccc(N)cc4)cc3)nc21 [Example 38, 2-(4-aminophenyl)ethyl [4-(3-ethyl-7-morpholin-4-yl-3H-[1,2,3]triazolo[4,5-d]pyrimidin-5-yl)phenyl]carbamate]
68	44	Oc1cncc(-c2nc(N3CCOCC3)c3nnn(C4CCN(Cc5ccc(F)cc5F)CC4)c3n2)c1 [Example 23, 5-{3-[1-(2,4-difluorobenzyl)piperidin-4-yl]-7-morpholin-4-yl-3H-[1,2,3]triazolo[4,5-d]pyrimidin-5-yl}pyridin-3-ol]
36.5	494	CC(C)(C)OC(=O)N1CCC(n2nnc3c(N4CCOCC4)nc(-c4ccc(NC(=O)Nc5ccncc5)cc4)nc32)CC1 [Example 166, tert-butyl 4-(7-morpholin-4-yl-5-{4-[(pyridin-4-ylcarbamoyl)amino]phenyl}-3H-[1,2,3]triazolo[4,5-d]pyrimidin-3-yl)piperidine-1-carboxylate]
166	685	CCCCN1CCC(n2nnc3c(N4CCOCC4)nc(-c4ccc(NC(=O)NCCN(C)C)cc4)nc32)CC1 [Example 159, 1-(4-(3-(1-butylpiperidin-4-yl)-7-morpholino-3H-[1,2,3]triazolo[4,5-d]pyrimidin-5-yl)phenyl)-3-(2-(dimethylamino)ethyl)urea]
> 10000	> 10000	COC(=O)NC(=O)Nc1ccc(-c2nc(N3CCOCC3)c3nnn(C4CCN(C(=O)OC(C)(C)C)CC4)c3n2)cc1 [Example 169, tert-butyl 4-[5-(4-{[(methoxycarbonyl)carbamoyl]amino}phenyl)-7-morpholin-4-yl-3H-[1,2,3]triazolo[4,5-d]pyrimidin-3-yl]piperidine-1-carboxylate]
10.5	49	Cn1nnc2c(N3CCOCC3)nc(-c3ccc(NC(=O)Nc4cccnc4)cc3)nc21 [Example 199, 1-[4-(3-methyl-7-morpholin-4-yl-3H-[1,2,3]triazolo[4,5-d]pyrimidin-5-yl)phenyl]-3-pyridin-3-ylurea]
987	5050	O=C(c1ccncc1)N1CCN(CCn2nnc3c(N4CCOCC4)nc(-c4cccc(O)c4)nc32)CC1 [Example 103, 3-{3-[2-(4-isonicotinoylpiperazin-1-yl)ethyl]-7-morpholin-4-yl-3H-[1,2,3]triazolo[4,5-d]pyrimidin-5-yl}phenol]
217	370	CN(C)CCCOc1ccc(CN2CCC(n3nnc4c(N5CCOCC5)nc(-c5cncc(O)c5)nc43)CC2)cc1 [Example 17, 5-[3-(1-{4-[3-(dimethylamino)propoxy]benzyl}piperidin-4-yl)-7-morpholin-4-yl-3H-[1,2,3]triazolo[4,5-d]pyrimidin-5-yl]pyridin-3-ol]
1260	1920	O=C(c1ccc(F)c(F)c1)N1CCN(CCn2nnc3c(N4CCOCC4)nc(-c4cccc(O)c4)nc32)CC1 [Example 102, 3-(3-{2-[4-(3,4-difluorobenzoyl)piperazin-1-yl]ethyl}-7-morpholin-4-yl-3H-[1,2,3]triazolo[4,5-d]pyrimidin-5-yl)phenol]
630	4910	COC(=O)c1ccc(Cn2nnc3c(N4CCOCC4)nc(-c4cccc(O)c4)nc32)cc1 [Example 241, methyl 4-{[5-(3-hydroxyphenyl)-7-morpholin-4-yl-3H-[1,2,3]triazolo[4,5-d]pyrimidin-3-yl]methyl}benzoate]
38.3	144	OCc1cccc(-c2nc(N3CCOCC3)c3nnn(-c4cccc(CO)c4)c3n2)c1 [Example 117, [(7-morpholin-4-yl-3H-[1,2,3]triazolo[4,5-d]pyrimidine-3,5-diyl)di-3,1-phenylene]dimethanol]
74	173	CC(C)(C)OC(=O)Cn1nnc2c(N3CCOCC3)nc(-c3ccc(NC(=O)Nc4ccncc4)cc3)nc21 [Example 234, tert-butyl (7-morpholin-4-yl-5-{4-[(pyridin-4-ylcarbamoyl)amino]phenyl}-3H-[1,2,3]triazolo[4,5-d]pyrimidin-3-yl)acetate]
60.5	873	Nc1ccccc1C(=O)N1CC(n2nnc3c(N4CCOCC4)nc(-c4cccc(O)c4)nc32)C1 [Example 126, (2-amino-phenyl)-{3-[5-(3-hydroxy-phenyl)-7-morpholin-4-yl-[1,2,3]triazolo[4,5-d]pyrimidin-3-yl]-azetidin-1-yl}-methanone]
175	2510	O=C(NCCc1ccccc1)c1ccc(Cn2nnc3c(N4CCOCC4)nc(-c4cccc(O)c4)nc32)cc1 [Example 223, 4-{[5-(3-hydroxyphenyl)-7-morpholin-4-yl-3H-[1,2,3]triazolo[4,5-d]pyrimidin-3-yl]methyl}-N-(2-phenylethyl)benzamide]
10.5	48.5	CC(C)n1nnc2c(N3CCOCC3)nc(-c3ccc(NC(=O)Nc4cccnc4)cc3)nc21 [Example 83, 1-[4-(3-isopropyl-7-morpholin-4-yl-3H-[1,2,3]triazolo[4,5-d]pyrimidin-5-yl)-phenyl]-3-pyridin-3-yl-urea]
< 2.2	11.3	CCn1nnc2c(N3CCOCC3)nc(-c3ccc(NC(=O)Nc4ccc(C(=O)N(C)CCN(C)C)cc4)cc3)nc21 [Example 45, N-[2-(dimethylamino)ethyl]-4-({[4-(3-ethyl-7-morpholin-4-yl-3H-[1,2,3]triazolo[4,5-d]pyrimidin-5-yl)phenyl]carbamoyl}amino)-N-methylbenzamide]
3.6	31	CCn1nnc2c(N3CCOCC3)nc(-c3ccc(NC(=O)Nc4ccc(C(=O)NCc5ccncc5)cc4)cc3)nc21 [Example 51, 4-({[4-(3-ethyl-7-morpholin-4-yl-3H-[1,2,3]triazolo[4,5-d]pyrimidin-5-yl)phenyl]carbamoyl}amino)-N-(pyridin-4-ylmethyl)benzamide]
13	280	CN(C)CCCOc1ccc(CN2CCC(n3nnc4c(N5CCOCC5)nc(-c5cccc(O)c5)nc43)CC2)cc1 [Example 146, 3-[3-(1-{4-[3-(dimethylamino)propoxy]benzyl}piperidin-4-yl)-7-morpholin-4-yl-3H-[1,2,3]triazolo[4,5-d]pyrimidin-5-yl]phenol]
132	154	OCc1cccc(-c2nc(N3CCOCC3)c3nnn(CCCN4CCCC4)c3n2)c1 [Example 10, {3-[7-morpholin-4-yl-3-(3-pyrrolidin-1-ylpropyl)-3H-[1,2,3]triazolo[4,5-d]pyrimidin-5-yl]phenyl}methanol]
134	1240	Oc1cccc(-c2nc(N3CCOCC3)c3nnn(C4CN(Cc5ccccc5)C4)c3n2)c1 [Example 127, 3-[3-(1-benzylazetidin-3-yl)-7-morpholin-4-yl-3H-[1,2,3]triazolo[4,5-d]pyrimidin-5-yl]phenol]
30	156	CC(C)(C)OC(=O)N1CC(n2nnc3c(N4CCOCC4)nc(-c4ccc(NC(=O)Nc5ccncc5)cc4)nc32)C1 [Example 129, tert-butyl 3-(7-morpholin-4-yl-5-{4-[(pyridin-4-ylcarbamoyl)amino]phenyl}-3H-[1,2,3]triazolo[4,5-d]pyrimidin-3-yl)azetidine-1-carboxylate]
400	2770	CCn1nnc2c(N3CCOCC3)nc(-c3ccc(NC(=O)NC4CCNCC4)cc3)nc21 [Example 66, 1-[4-(3-ethyl-7-morpholin-4-yl-3H-[1,2,3]triazolo[4,5-d]pyrimidin-5-yl)phenyl]-3-piperidin-4-ylurea]
34.5	100	Cc1ccc(NC(=O)Nc2ccc(-c3nc(N4CCOCC4)c4nnn(C(C)C)c4n3)cc2)cc1 [Example 90, 1-(4-methyl-phenyl)-3-[4-(3-isopropyl-7-morpholin-4-yl-3H-[1,2,3]triazolo[4,5-d]pyrimidin-5-yl)-phenyl]-urea]
15.5	40	COc1ccc(NC(=O)Nc2ccc(-c3nc(N4CCOCC4)c4nnn(C(C)C)c4n3)cc2)cc1 [Example 89, 1-(4-methoxy-phenyl)-3-[4-(3-isopropyl-7-morpholin-4-yl-3H-[1,2,3]triazolo[4,5-d]pyrimidin-5-yl)-phenyl]-urea]
242	900	Oc1cccc(-c2nc(N3CCOCC3)c3nnn(CCN4CCN(Cc5cccc(F)c5)CC4)c3n2)c1 [Example 109, 3-(3-{2-[4-(3-fluorobenzyl)piperazin-1-yl]ethyl}-7-morpholin-4-yl-3H-[1,2,3]triazolo[4,5-d]pyrimidin-5-yl)phenol]
< 1.8	7	CCn1nnc2c(N3CCOCC3)nc(-c3ccc(NC(=O)Nc4ccc(C(=O)N5CCN[C@H](C)C5)cc4)cc3)nc21 [Example 54, 1-[4-(3-ethyl-7-morpholin-4-yl-3H-[1,2,3]triazolo[4,5-d]pyrimidin-5-yl)phenyl]-3-(4-{[(3R)-3-methylpiperazin-1-yl]carbonyl}phenyl)urea]
3.3	15.5	CCNC(=O)c1ccc(NC(=O)Nc2ccc(-c3nc(N4CCOCC4)c4nnn(CC)c4n3)cc2)cc1 [Example 64, N-ethyl-4-({[4-(3-ethyl-7-morpholin-4-yl-3H-[1,2,3]triazolo[4,5-d]pyrimidin-5-yl)phenyl]carbamoyl}amino)benzamide]
19	346	O=C(Nc1ccccc1)Nc1ccc(-c2nc(N3CCOCC3)c3nnn(CC4CN(C(=O)c5ccccc5)C4)c3n2)cc1 [Example 190, 1-(4-{3-[(1-benzoylazetidin-3-yl)methyl]-7-morpholin-4-yl-3H-[1,2,3]triazolo[4,5-d]pyrimidin-5-yl}phenyl)-3-phenylurea]
342	2640	CNC(=O)c1ccc(Cn2nnc3c(N4CCOCC4)nc(-c4cccc(O)c4)nc32)cc1 [Example 207, 4-{[5-(3-hydroxyphenyl)-7-morpholin-4-yl-3H-[1,2,3]triazolo[4,5-d]pyrimidin-3-yl]methyl}-N-methylbenzamide]

From patent US20090181963A1, “3H-[1,2,3]TRIAZOLO[4,5-D]PYRIMIDINE COMPOUNDS, THEIR USE AS mTOR KINASE AND PI3 KINASE INHIBITORS, AND THEIR [sequence]” (Wyeth, priority 2008, published 2009)
